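In this assay, cells in 96-well plates receive the compound at five concentrations for 48 hours. Endpoints are linearly interpolated between the surrounding concentrations. Abbreviation: GI50, concentration required for 50% inhibition of growth. Definition used: TGI = concentration required for complete inhibition of growth.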 Some results are limits rather than exact numbers.

Experimental findings from PubChem BioAssay (NCI) are described below.

Some test systems named below: SK-OV-3 ovarian; COLO 205 colon; SK-MEL-2 melanoma; SNB-78 CNS; OVCAR-4 ovarian; DMS 114 small cell lung; HCT-116 colon; 786-0 renal; HOP-92 NSCLC; SR leukemia; DLD-1 colon.
Holding throughout (assay): DTP human tumour cell line panel, 48 h

For `C=C1C2CC(OC(C)=O)C3(C)C(c4ccoc4)OC(=O)[C@@H](O)[C@]13OC1C[C@H](OC(C)=O)C(C)(C)[C@H](CC(=O)OC)[C@]12C` (some centres not stated), the TGI in the assay on SK-OV-3 ovarian, with COLO 205 colon, in the assay with SK-MEL-2 melanoma, in the assay on SNB-78 CNS, in the assay with OVCAR-4 ovarian and in the assay with DMS 114 small cell lung was above 100 µM in each case. In addition, the TGI in the assay on HCT-116 colon, in the assay with 786-0 renal and with HOP-92 NSCLC was above 100 µM throughout.
With `C#CC1(O)c2ccccc2C(=O)c2ccccc21`, the TGI in the assay on COLO 205 colon, in the assay on SK-MEL-2 melanoma, in the assay with SNB-78 CNS, in the assay with OVCAR-4 ovarian, in the assay on HCT-116 colon and in the assay on SR leukemia was above 100 µM throughout. In addition, the total growth inhibition concentration (TGI) (in general, the concentration at which net growth stops) with 786-0 renal is above 100 µM; in the assay with HOP-92 NSCLC, 99.6 µM.
Regarding `Cc1ccc(NC(=S)SCCC(=O)O)cc1`, the TGI in the assay on COLO 205 colon, with SK-MEL-2 melanoma, with SNB-78 CNS, in the assay with OVCAR-4 ovarian, in the assay on DMS 114 small cell lung and in the assay on HCT-116 colon was above 100 µM throughout. The TGI in the assay on SR leukemia and in the assay with 786-0 renal was above 100 µM throughout.
Consider `COC(=O)C1C=NNC1C(=O)OC` (configuration not stated), for which the concentration for total growth inhibition (TGI) in the assay with SK-OV-3 ovarian, in the assay with COLO 205 colon, in the assay with SK-MEL-2 melanoma, with SNB-78 CNS, in the assay on OVCAR-4 ovarian and with DMS 114 small cell lung was above 100 µM throughout. Also, the TGI with HCT-116 colon and in the assay with 786-0 renal was above 100 µM throughout.
For the molecule `CCOC(=N)CC(=O)Nc1cccc(Cl)c1`, the TGI in the assay with DLD-1 colon, in the assay on SK-OV-3 ovarian, with COLO 205 colon, in the assay with SK-MEL-2 melanoma, with SNB-78 CNS and in the assay with OVCAR-4 ovarian was above 100 µM each time. Further, the TGI in the assay on HCT-116 colon, with SR leukemia and in the assay with 786-0 renal was above 100 µM in each case.
Take `O=C1C(=O)c2ccccc2C(O)=C1CCCc1ccc(C2CCCCCC2)cc1`: the GI50 (usually the concentration giving 50% growth inhibition) with SK-OV-3 ovarian was 2.85 µM; in the assay with COLO 205 colon it was 4.9 µM; in the assay on SK-MEL-2 melanoma it was 1.12 µM; in the assay on OVCAR-4 ovarian, 1.02 µM; in the assay with HCT-116 colon it was 0.426 µM; in the assay with SR leukemia it was 1.77 µM. Moreover, the GI50 in the assay on 786-0 renal was 0.465 µM; with HOP-92 NSCLC, 3.01 µM. Besides, the TGI is 54.6 µM with SK-OV-3 ovarian; 20 µM with COLO 205 colon; 21.4 µM with SK-MEL-2 melanoma; above 100 µM in the assay with OVCAR-4 ovarian; 13.3 µM with HCT-116 colon; above 100 µM in the assay on SR leukemia. Further, the TGI in the assay on 786-0 renal was 17 µM; with HOP-92 NSCLC, 24.9 µM.
Consider `COc1cc(N2CCN(C(C)C)CC2)ccc1Nc1nc(Nc2cccc(F)c2C(=O)O)c2cc[nH]c2n1`, for which the GI50 with SK-OV-3 ovarian, in the assay on COLO 205 colon, in the assay with SK-MEL-2 melanoma, with OVCAR-4 ovarian, in the assay with HCT-116 colon and in the assay on SR leukemia was above 25 µM in each case. In addition, the GI50 in the assay with 786-0 renal was above 25 µM; in the assay on HOP-92 NSCLC, 1.06 µM. Further, the concentration for total growth inhibition (TGI) in the assay on SK-OV-3 ovarian, with COLO 205 colon, with SK-MEL-2 melanoma, in the assay with OVCAR-4 ovarian, in the assay on HCT-116 colon and with SR leukemia was above 25 µM each time. Further, the TGI in the assay on 786-0 renal and in the assay with HOP-92 NSCLC was above 25 µM throughout.
On to `Cc1[nH]c(-c2nc3ccccc3[nH]2)c(C)c1C(=O)NC(C)C1CCCCC1` (configuration not stated), for which the GI50 in the assay on SK-OV-3 ovarian was 15.3 µM; in the assay with COLO 205 colon it was 18.3 µM; with SK-MEL-2 melanoma it was 10.1 µM; with OVCAR-4 ovarian, 12.4 µM; with HCT-116 colon, 10.1 µM; with SR leukemia, 4.38 µM. The GI50 in the assay with 786-0 renal is 14.8 µM; in the assay with HOP-92 NSCLC, 10.2 µM. In addition, the TGI was 34.4 µM in the assay on SK-OV-3 ovarian; 58 µM with COLO 205 colon; 25.5 µM in the assay with SK-MEL-2 melanoma; 26.8 µM in the assay with OVCAR-4 ovarian; 24.2 µM in the assay on HCT-116 colon; 34.5 µM with SR leukemia. The TGI in the assay on 786-0 renal stood at 32.2 µM; in the assay with HOP-92 NSCLC, 25.3 µM.
In the case of `CCN(CC)CCN(Cc1ccc(F)cc1)c1ccc(CO)c(Cl)c1`, the GI50 is 2.96 µM with SK-OV-3 ovarian; 2.2 µM with COLO 205 colon; 21.2 µM in the assay with SK-MEL-2 melanoma; 4.6 µM with OVCAR-4 ovarian; 3.55 µM in the assay on HCT-116 colon; 23.5 µM with SR leukemia. Also, the results for the GI50 in the assay on 786-0 renal and in the assay on HOP-92 NSCLC were 30.2 µM and 2.66 µM, respectively. Further, the TGI with SK-OV-3 ovarian is 13.6 µM; in the assay with COLO 205 colon, 5.54 µM; in the assay with SK-MEL-2 melanoma, 44.4 µM; in the assay on OVCAR-4 ovarian it was 35.2 µM; with HCT-116 colon, above 50.1 µM; in the assay with SR leukemia, 67.9 µM. Moreover, the results for the TGI with 786-0 renal and in the assay on HOP-92 NSCLC were above 100 µM and 19.3 µM, respectively.
On to `O=S(=O)([O-])[O-].[Cl-].[NH2-].[NH2-].[NH2-].[NH2-].[Ru+3].c1ccncc1`, for which the TGI with DLD-1 colon, with SK-OV-3 ovarian, in the assay with COLO 205 colon, in the assay on SK-MEL-2 melanoma, with OVCAR-4 ovarian and in the assay on HCT-116 colon was above 100 µM in each case. The TGI in the assay on SR leukemia, in the assay with 786-0 renal and in the assay on HOP-92 NSCLC was above 100 µM each time.
Consider `Cc1cccc(N2C(=O)C(=O)C(c3nc4ccccc4s3)/C(=N/NC(=S)NN)C2=O)c1C` (configuration not stated), for which the TGI with SK-OV-3 ovarian, in the assay with COLO 205 colon, in the assay on SK-MEL-2 melanoma, in the assay with SNB-78 CNS, in the assay with OVCAR-4 ovarian and in the assay with DMS 114 small cell lung was above 100 µM throughout. Further, the TGI in the assay on HCT-116 colon, with 786-0 renal and in the assay with HOP-92 NSCLC was above 100 µM throughout.
Consider `CCOC(=O)C1=C(C)N(NC(N)=O)C(C)(O)C12CCOC2=O` (configuration not stated), for which the total growth inhibition concentration (TGI) with DLD-1 colon was above 100 µM; in the assay with SK-OV-3 ovarian, above 100 µM; in the assay with SK-MEL-2 melanoma, above 100 µM; in the assay with SNB-78 CNS, 34.5 µM; in the assay with OVCAR-4 ovarian, above 100 µM; with HCT-116 colon it was above 100 µM. Also, the TGI in the assay with SR leukemia and in the assay on 786-0 renal was above 100 µM in each case.
